Laboratory results published in the supplement of paper PMC10307832.

Assays:
Test in all cases: relative viability (nuclei count vs DMSO), 5 days (fraction); higher = more cells survive
17-AAG + Palbociclib = compound: C=CCNC1=C2C[C@@H](C)C[C@H](OC)[C@H](O)[C@@H](C)/C=C(\C)[C@H](OC(N)=O)[C@@H](OC)/C=C\C=C(/C)C(=O)NC(=CC1=O)C2=O [17-AAG] + CC(=O)c1c(C)c2cnc(Nc3ccc(N4CCNCC4)cn3)nc2n(C2CCCC2)c1=O [Palbociclib] (partner 0.5 µM)
In short: (§1)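 Medians of duplicate plates are given as relative viability. That measure is the nuclei count in treated wells divided by the count in vehicle wells. Counts were taken on 4× images of lung cancer cell lines in 1536-well plates, 5 days after pin-tool dosing the day after seeding with one drug alone or a fixed anchor-drug dose plus five library-drug doses (not always all listed) in √10 steps.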

17-AAG + Pictilisib = compound: C=CCNC1=C2C[C@@H](C)C[C@H](OC)[C@H](O)[C@@H](C)/C=C(\C)[C@H](OC(N)=O)[C@@H](OC)/C=C\C=C(/C)C(=O)NC(=CC1=O)C2=O [17-AAG] + CS(=O)(=O)N1CCN(Cc2cc3nc(-c4cccc5[nH]ncc45)nc(N4CCOCC4)c3s2)CC1 [Pictilisib] (partner 1 µM)
In short: as §1

17-AAG + Phenformin = compound: C=CCNC1=C2C[C@@H](C)C[C@H](OC)[C@H](O)[C@@H](C)/C=C(\C)[C@H](OC(N)=O)[C@@H](OC)/C=C\C=C(/C)C(=O)NC(=CC1=O)C2=O [17-AAG] + N=C(N)NC(=N)NCCc1ccccc1 [Phenformin] (partner 250 µM)
In short: as §1

17-AAG + Decitabine = compound: C=CCNC1=C2C[C@@H](C)C[C@H](OC)[C@H](O)[C@@H](C)/C=C(\C)[C@H](OC(N)=O)[C@@H](OC)/C=C\C=C(/C)C(=O)NC(=CC1=O)C2=O [17-AAG] + Nc1ncn([C@H]2C[C@H](O)[C@@H](CO)O2)c(=O)n1 [Decitabine] (partner 2 µM)
In short: as §1

| Cell Line | relative viability (17-AAG + Palbociclib; first compound 0.00128 µM) | relative viability (17-AAG + Palbociclib; first compound 0.004048 µM) | relative viability (17-AAG + Palbociclib; first compound 0.0128 µM) | relative viability (17-AAG + Palbociclib; first compound 0.04048 µM) | relative viability (17-AAG + Palbociclib; first compound 0.128 µM) | relative viability (17-AAG + Pictilisib; first compound 0.00128 µM) | relative viability (17-AAG + Pictilisib; first compound 0.004048 µM) | relative viability (17-AAG + Pictilisib; first compound 0.0128 µM) | relative viability (17-AAG + Pictilisib; first compound 0.04048 µM) | relative viability (17-AAG + Pictilisib; first compound 0.128 µM) | relative viability (17-AAG + Phenformin; first compound 0.00128 µM) | relative viability (17-AAG + Phenformin; first compound 0.004048 µM) | relative viability (17-AAG + Phenformin; first compound 0.0128 µM) | relative viability (17-AAG + Phenformin; first compound 0.04048 µM) | relative viability (17-AAG + Phenformin; first compound 0.128 µM) | relative viability (17-AAG + Decitabine; first compound 0.00128 µM) | relative viability (17-AAG + Decitabine; first compound 0.004048 µM) | relative viability (17-AAG + Decitabine; first compound 0.0128 µM) | relative viability (17-AAG + Decitabine; first compound 0.04048 µM) | relative viability (17-AAG + Decitabine; first compound 0.128 µM) |
| --- | --- | --- | --- | --- | --- | --- | --- | --- | --- | --- | --- | --- | --- | --- | --- | --- | --- | --- | --- | --- |
| LK-2 | 0.849 | 0.64 | 0.644 | 0.236 | 0.0922 | 0.725 | 0.659 | 0.6 | 0.208 | 0.175 | 0.462 | 0.478 | 0.194 | 0.158 | 0.135 | 0.269 | 0.37 | 0.187 | 0.0931 | 0.0957 |
| NCI-H1993 | 0.704 | 0.622 | 0.813 | 0.373 | 0.296 | 0.797 | 0.806 | 0.667 | 0.6 | 0.638 | 0.507 | 0.451 | 0.472 | 0.397 | 0.404 | 0.609 | 0.606 | 0.544 | 0.408 | 0.348 |
| PC-14 | 0.471 | 0.241 | 0.0966 | 0.0821 | 0.0751 | 0.654 | 0.219 | 0.057 | 0.067 | 0.0563 | 0.449 | 0.44 | 0.126 | 0.123 | 0.109 | 0.183 | 0.199 | 0.097 | 0.103 | 0.0891 |
| NCI-H1437 | 0.3 | 0.351 | 0.259 | 0.198 | 0.167 | 0.534 | 0.489 | 0.144 | 0.0969 | 0.0847 | 0.312 | 0.316 | 0.179 | 0.153 | 0.129 | 0.531 | 0.636 | 0.504 | 0.311 | 0.241 |
| NCI-H2170 | 0.397 | 0.385 | 0.324 | 0.192 | 0.115 | 0.279 | 0.284 | 0.167 | 0.153 | 0.175 | 0.408 | 0.453 | 0.297 | 0.163 | 0.135 | 0.375 | 0.47 | 0.291 | 0.336 | 0.152 |
| LCLC-103H | 0.5 | 0.471 | 0.489 | 0.477 | 0.464 | 0.58 | 0.583 | 0.669 | 0.73 | 0.712 | 0.351 | 0.345 | 0.3 | 0.346 | 0.325 | 0.757 | 0.715 | 0.731 | 0.812 | 0.797 |
| NCI-H460 | 0.31 | 0.117 | 0.016 | 0.0279 | 0.0159 | 0.404 | 0.462 | 0.193 | 0.0668 | 0.0737 | 0.468 | 0.332 | 0.0221 | 0.021 | 0.0236 | 0.333 | 0.321 | 0.0276 | 0.0244 | 0.0254 |
| SW 1573 | 0.459 | 0.207 | 0.169 | 0.103 | 0.0788 | 0.549 | 0.531 | 0.206 | 0.19 | 0.104 | 0.34 | 0.257 | 0.123 | 0.145 | 0.1 | 0.336 | 0.284 | 0.159 | 0.113 | 0.0972 |
| BEN | 0.466 | 0.484 | 0.54 | 0.491 | 0.337 | 0.569 | 0.72 | 0.656 | 0.346 | 0.183 | 0.268 | 0.26 | 0.222 | 0.197 | 0.167 | 0.613 | 0.712 | 0.759 | 0.446 | 0.288 |
| LC-2-ad | 0.553 | 0.53 | 0.494 | 0.486 | 0.172 | 0.567 | 0.617 | 0.123 | 0.124 | 0.0943 | 0.476 | 0.523 | 0.273 | 0.258 | 0.227 | 0.776 | 0.876 | 0.713 | 0.645 | 0.227 |
| COR-L23 | 0.278 | 0.338 | 0.336 | 0.198 | 0.0966 | 0.703 | 0.77 | 0.789 | 0.38 | 0.083 | 0.459 | 0.438 | 0.419 | 0.269 | 0.103 | 0.328 | 0.52 | 0.432 | 0.351 | 0.138 |
| NCI-H1650 | 0.294 | 0.187 | 0.122 | 0.115 | 0.0961 | 0.49 | 0.212 | 0.128 | 0.173 | 0.144 | 0.294 | 0.15 | 0.146 | 0.147 | 0.157 | 0.384 | 0.33 | 0.185 | 0.165 | 0.134 |
| SK-LU-1 | 0.441 | 0.469 | 0.295 | 0.272 | 0.204 | 0.558 | 0.374 | 0.199 | 0.127 | 0.141 | 0.484 | 0.214 | 0.119 | 0.116 | 0.0908 | 0.582 | 0.599 | 0.402 | 0.24 | 0.223 |
| NCI-H1915 | 0.533 | 0.503 | 0.471 | 0.253 | 0.0774 | 0.848 | 0.992 | 0.832 | 0.207 | 0.0693 | 0.358 | 0.372 | 0.308 | 0.106 | 0.0928 | 0.259 | 0.271 | 0.263 | 0.25 | 0.0807 |
| NCI-H647 | 0.414 | 0.284 | 0.102 | 0.0567 | 0.0782 | 0.454 | 0.253 | 0.0973 | 0.15 | 0.106 | 0.569 | 0.446 | 0.0903 | 0.103 | 0.103 | 0.365 | 0.272 | 0.0949 | 0.129 | 0.102 |
